# Data: paper PMC7996082, “The translocator protein ligands as mitochondrial functional modulators for the potential anti-Alzheimer agents” (Journal of Enzyme Inhibition and Medicinal Chemistry, 2021)
# Experiments:
# hERG channel = target: T1, hERG channel (Homo sapiens, UniProt Q12809); assay: hERG inhibition assay (automated patch-clamp, CHO-K1 Tet-On hERG cells); format: cell-based; settings: patch-clamp, ± SD
# T1 construct: host or cells: CHO-K1 Tet-On hERG cells
# Experimental: For automated patch-clamp NPC-16 Patchliner (Nanion Technologies, München, Germany) recordings, CHO-K1 Tet-On hERG cells (IonGate Biosciences GmbH, Frankfurt, Germany) were plated into 100-mm cell culture dishes. Whole-cell currents were recorded with the intracellular solution containing: 50 mM KCl, 60 mM KF, 10 mM NaCl, 2 mM MgCl2, 20 mM EGTA and 10 mM HEPES (pH 7.2), and with the extracellular solution containing: 140 mM NaCl, 4 mM KCl, 2 mM CaCl2, 1 mM MgCl2, 5 mM Glucose and 10 HEPES (pH 7.4). To assist stable seal formations, the seal enhancer containing: 80 mM NaCl, 3 mM KCl, 35 mM CaCl2, 10 mM MgCl2 and 10 mM HEPES (pH 7.4) was used only at the seal formation step. Prior to the whole-cell recordings, the external seal enhancing solution was exchanged to the extracellular solution described above. hERG channel currents were recorded using the parallel EPC-10 patch-clamp amplifiers (HEKA Elektronik, Lambrecht/Pfalz, Germany), and low-pass filtered (10 kHz) with a 4-pole Bessel filter. Cell suspension and patch solutions were automatically added onto the four recording wells in the microfabricated disposable chip (NPC-16 Chip, Nanion Technologies, München, Germany). To obtain the inhibitory constants, hERG tail currents were evoked by repolarizing steps to −50 mV for 500 ms preceded by a 500-ms depolarisation potential of +20 mV at a holding potential of −80 mV with a 20-s sweep interval. Whole-cell currents were acquired and digitised at 5 kHz using Patchmaster (HEKA Elektronik, Lambrecht/Pfalz, Germany). The extracellular solution was exchanged to the extracellular solution containing each blocker via four pipette tips of NPC-16 Patchliner using a 4-fold volume of solution (40 µL) with a speed of 4 µL/s, and the exchanged blocker solution was applied for 100–200 s to the patch-clamped cells until blocker binding had reached equilibrium by monitoring hERG tail currents. Whole-cell recordings were analysed using the Patchmaster/Fitmaster (HEKA Elektronik, Lambrecht/Pfalz, Germany), IGOR Pro (WaveMetrics Inc., Portland, OR, USA), and the GraphPad Prism 4.0 (GraphPad Software, Inc., La Jolla, CA, USA) software.
# [1] = MTT assay: HT22 cell viability with compound alone; format: cell-based, mouse; settings: mouse, HT22 cells; HT22 cell viability after 24 h of treatment with 5 μM compound, no Aβ
# Experimental: To a clear 96-well plate (FALCON), the cultured HT-22 cells were seeded in a number of 5,000 per well 24 h prior to the assay. A solution of each test compound (5 µM, 25 µL) was added to each well. After 24 h of incubation at 37 °C, the cells were treated with a 10 µL of MTT solution (3–(4,5-dimethylthiazol-2-yl)-2,5-diphenyltetrazolium bromide, Sigma-Aldrich), incubated for 2 h at 37 °C, and were treated with 135 µL of MTT solubilising solution (10% Triton-X 100 in isopropanol with 0.1 M HCl) for 2 h at 37 °C. The % values of cell viability were determined by using the optical density (OD) values at 560 nm, and normalised by taking the vehicle control (5 µM of DMSO) as […].
# [2] = Liver microsomal stability; format: in vitro ADME; settings: human, liver microsomes, 1 µM compound, 0.5 mg/mL microsomes, 30 min, 37 °C; read-out: Human Liver Microsomal Stability (% remaining after 30 min)
# Experimental: Liver microsomes (human, dog, rat, and mouse; 0.5 mg/mL) were incubated with 1 µM of each test compound in the presence of potassium phosphate buffer (PPB) for 5 min at 37 °C. A solution of the NADPH regeneration system (#44332000, Oriental Yeast Co., Japan) was added to begin metabolic reactions of liver microsomes. The resulting mixtures were incubated for 30 min at 37 °C, and the reaction was terminated by the addition of a cold MeCN solution containing an internal standard (chlorpropamide). The mixture was separated by centrifugation (14,000 rpm for 5 min at 4 °C), and the supernatant was analysed by LC-MS/MS (Shimadzu Nexera XR system and TSQ vantage; Thermo Scientific).
# CYP2C9 = target: T2, CYP2C9 (Homo sapiens, UniProt P11712); assay: CYP inhibition assay (Vivid CYP450 screening kit); format: in vitro ADME; settings: 10 μM compound
# T2 construct: purchased Invitrogen, Madison, WI, USA
# Experimental: (§1) Human CYP450 (CYP1A2, 2D6, 2C9, 2C19, and 3A4) activities were determined by using the Vivid® CYP450 screening kit (Invitrogen, Madison, WI, USA) in a clear 96-well plate. Five positive controls were used as 10 mM solutions in MeCN for five different CYP450 enzymes: CYP1A2 (α-naphthoflavone), CYP2D6 (quinidine), CYP2C9 (sulfaphenazole), CYP2C19 (lansoprazole), and CYP3A4 (ketoconazole). Each sample (test compounds, positive inhibition controls, and solvent controls) was added into each well with the Master Pre-Mix [CYP450 BACULOSOMES® Reagent (recombinant human CYP450 isozyme and rabbit NADPHP450 reductase) and Regeneration System (3.3 mM glucose-6-phosphate and 0.3 U/ml glucose-6-phosphate dehydrogenase in 100 mM potassium phosphate, pH 8.0)]. The mixture was incubated for 5 min at 37 °C, and the Vivid® CYP substrates and 0.1 mM NADP^+ buffer were added to initiate the CYP450 enzyme reaction. The % remaining activities of CYP450 were measured after 20 min by using a fluorescent plate reader (Flexstation® 3, Molecular Devices, USA).
# CYP2D6 = target: T3, CYP2D6 (Homo sapiens, UniProt P10635); assay: CYP inhibition assay (Vivid CYP450 screening kit); format: in vitro ADME; settings: 10 μM compound
# T3 construct: purchased Invitrogen, Madison, WI, USA
# Experimental: as §1
# CYP1A2 = target: T4, CYP1A2 (Homo sapiens, UniProt P05177); assay: CYP inhibition assay (Vivid CYP450 screening kit); format: in vitro ADME; settings: 10 μM compound
# T4 construct: purchased Invitrogen, Madison, WI, USA
# T4 sequence (P05177 2-516 limits assumed): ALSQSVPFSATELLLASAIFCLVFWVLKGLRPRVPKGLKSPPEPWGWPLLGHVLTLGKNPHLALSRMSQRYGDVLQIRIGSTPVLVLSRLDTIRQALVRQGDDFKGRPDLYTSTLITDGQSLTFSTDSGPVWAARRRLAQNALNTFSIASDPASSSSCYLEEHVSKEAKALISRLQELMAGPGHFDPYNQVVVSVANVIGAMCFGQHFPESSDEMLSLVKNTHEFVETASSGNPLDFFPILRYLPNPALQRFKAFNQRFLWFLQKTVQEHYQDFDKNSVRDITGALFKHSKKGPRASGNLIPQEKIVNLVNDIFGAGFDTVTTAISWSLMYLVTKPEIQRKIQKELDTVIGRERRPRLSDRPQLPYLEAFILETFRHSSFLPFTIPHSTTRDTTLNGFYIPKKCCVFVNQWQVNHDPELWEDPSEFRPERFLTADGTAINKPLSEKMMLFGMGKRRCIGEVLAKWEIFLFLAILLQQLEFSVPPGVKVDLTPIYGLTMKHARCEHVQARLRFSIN
# Experimental: as §1
# CYP3A4 = target: T5, CYP3A4 (Homo sapiens, UniProt P08684); assay: CYP inhibition assay (Vivid CYP450 screening kit); format: in vitro ADME; settings: 10 μM compound
# T5 construct: purchased Invitrogen, Madison, WI, USA
# Experimental: as §1
# CYP2C19 = target: T6, CYP2C19 (Homo sapiens, UniProt P33261); assay: CYP inhibition assay (Vivid CYP450 screening kit); format: in vitro ADME; settings: 10 μM compound
# T6 construct: purchased Invitrogen, Madison, WI, USA
# Experimental: as §1
# T6 sequence (P33261 whole entry): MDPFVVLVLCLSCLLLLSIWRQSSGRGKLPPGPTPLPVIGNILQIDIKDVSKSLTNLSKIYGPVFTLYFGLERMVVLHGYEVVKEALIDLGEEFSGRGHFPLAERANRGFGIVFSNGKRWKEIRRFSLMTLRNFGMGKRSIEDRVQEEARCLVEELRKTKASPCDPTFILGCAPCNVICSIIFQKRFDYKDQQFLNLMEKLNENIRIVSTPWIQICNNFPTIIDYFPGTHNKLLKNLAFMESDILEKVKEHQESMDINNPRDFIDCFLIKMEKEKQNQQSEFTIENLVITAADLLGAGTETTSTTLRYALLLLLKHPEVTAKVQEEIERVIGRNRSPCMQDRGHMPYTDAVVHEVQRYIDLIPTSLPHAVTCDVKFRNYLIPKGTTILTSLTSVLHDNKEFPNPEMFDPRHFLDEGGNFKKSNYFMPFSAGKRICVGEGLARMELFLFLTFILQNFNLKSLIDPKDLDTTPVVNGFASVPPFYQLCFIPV
# T2 sequence (P11712 whole entry): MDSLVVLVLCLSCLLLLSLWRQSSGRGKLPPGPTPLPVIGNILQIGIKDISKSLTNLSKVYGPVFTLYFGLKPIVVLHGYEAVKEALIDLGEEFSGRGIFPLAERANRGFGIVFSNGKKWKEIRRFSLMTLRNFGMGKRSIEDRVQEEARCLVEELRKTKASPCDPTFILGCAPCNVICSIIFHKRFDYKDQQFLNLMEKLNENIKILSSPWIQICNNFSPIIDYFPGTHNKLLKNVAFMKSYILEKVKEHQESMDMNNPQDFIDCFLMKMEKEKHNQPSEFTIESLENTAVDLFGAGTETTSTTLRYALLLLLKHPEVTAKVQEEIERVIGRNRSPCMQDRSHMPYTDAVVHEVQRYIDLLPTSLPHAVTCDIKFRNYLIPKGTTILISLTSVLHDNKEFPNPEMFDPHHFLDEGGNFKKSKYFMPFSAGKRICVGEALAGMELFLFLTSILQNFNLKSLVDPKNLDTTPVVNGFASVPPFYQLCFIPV
# T3 sequence (P10635 whole entry): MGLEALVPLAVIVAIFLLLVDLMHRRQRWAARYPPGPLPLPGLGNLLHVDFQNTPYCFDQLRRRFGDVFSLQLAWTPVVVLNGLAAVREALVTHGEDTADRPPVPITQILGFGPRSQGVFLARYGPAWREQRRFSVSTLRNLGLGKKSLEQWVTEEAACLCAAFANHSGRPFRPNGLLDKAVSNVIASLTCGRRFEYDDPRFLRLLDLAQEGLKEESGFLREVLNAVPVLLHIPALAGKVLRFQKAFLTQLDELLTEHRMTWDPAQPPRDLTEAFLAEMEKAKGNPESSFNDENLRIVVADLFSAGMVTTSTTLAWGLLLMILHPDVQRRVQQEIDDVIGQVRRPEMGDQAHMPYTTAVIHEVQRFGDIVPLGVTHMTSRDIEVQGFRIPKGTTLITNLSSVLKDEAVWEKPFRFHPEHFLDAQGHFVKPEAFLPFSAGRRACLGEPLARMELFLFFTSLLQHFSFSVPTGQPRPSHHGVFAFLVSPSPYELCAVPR
# T5 sequence (P08684 2-503 limits assumed): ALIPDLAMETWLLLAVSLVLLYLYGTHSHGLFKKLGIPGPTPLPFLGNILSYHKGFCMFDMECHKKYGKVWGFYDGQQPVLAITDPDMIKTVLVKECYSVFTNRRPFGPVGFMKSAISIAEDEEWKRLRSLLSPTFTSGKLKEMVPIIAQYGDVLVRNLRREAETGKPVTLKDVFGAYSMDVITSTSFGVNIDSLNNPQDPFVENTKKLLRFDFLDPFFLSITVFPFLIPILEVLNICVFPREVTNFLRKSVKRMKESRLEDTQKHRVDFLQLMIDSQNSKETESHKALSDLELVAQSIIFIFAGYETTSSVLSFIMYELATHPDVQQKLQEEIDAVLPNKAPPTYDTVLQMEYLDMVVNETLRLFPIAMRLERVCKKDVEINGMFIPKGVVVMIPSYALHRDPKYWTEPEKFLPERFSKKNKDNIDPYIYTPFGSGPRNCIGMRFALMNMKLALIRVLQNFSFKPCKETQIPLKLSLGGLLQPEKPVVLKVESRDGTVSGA
# T1 sequence (Q12809 whole entry): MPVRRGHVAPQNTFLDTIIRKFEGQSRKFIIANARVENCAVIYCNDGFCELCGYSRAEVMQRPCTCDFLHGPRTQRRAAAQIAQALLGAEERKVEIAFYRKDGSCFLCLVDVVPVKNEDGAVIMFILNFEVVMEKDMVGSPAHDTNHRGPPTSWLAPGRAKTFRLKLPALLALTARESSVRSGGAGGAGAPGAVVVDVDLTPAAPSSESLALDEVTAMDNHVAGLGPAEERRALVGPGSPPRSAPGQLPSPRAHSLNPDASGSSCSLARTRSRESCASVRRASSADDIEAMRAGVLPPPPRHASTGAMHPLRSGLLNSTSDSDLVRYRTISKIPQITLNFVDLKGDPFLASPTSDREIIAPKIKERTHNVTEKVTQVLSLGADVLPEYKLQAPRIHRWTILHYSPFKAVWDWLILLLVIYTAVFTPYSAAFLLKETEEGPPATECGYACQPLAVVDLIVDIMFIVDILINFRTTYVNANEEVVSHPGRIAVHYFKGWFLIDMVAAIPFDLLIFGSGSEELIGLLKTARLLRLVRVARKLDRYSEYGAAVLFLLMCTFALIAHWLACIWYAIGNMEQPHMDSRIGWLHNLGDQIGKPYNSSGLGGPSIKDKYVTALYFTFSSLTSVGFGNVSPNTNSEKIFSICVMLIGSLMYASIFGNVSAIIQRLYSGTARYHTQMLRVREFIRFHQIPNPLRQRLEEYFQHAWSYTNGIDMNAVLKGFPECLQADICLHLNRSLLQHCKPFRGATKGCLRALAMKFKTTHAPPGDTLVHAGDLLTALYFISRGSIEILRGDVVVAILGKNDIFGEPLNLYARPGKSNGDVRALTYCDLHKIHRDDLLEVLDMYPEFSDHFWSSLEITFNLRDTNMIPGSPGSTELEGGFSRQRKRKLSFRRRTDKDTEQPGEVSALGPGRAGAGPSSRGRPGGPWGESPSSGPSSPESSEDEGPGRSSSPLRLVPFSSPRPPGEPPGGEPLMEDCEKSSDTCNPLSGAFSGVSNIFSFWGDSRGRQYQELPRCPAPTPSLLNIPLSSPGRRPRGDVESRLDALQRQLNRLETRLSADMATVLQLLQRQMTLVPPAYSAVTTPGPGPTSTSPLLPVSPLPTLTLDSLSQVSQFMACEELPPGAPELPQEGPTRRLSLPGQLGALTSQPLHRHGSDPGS
Compound,IC50 (hERG channel) [µM],"viability at 24 h, 5 µM [1] [%]","remaining at 0.5 h, 1 µM [2] [%]",CYP450 (% remaining Activity at 10 μM) CYP2C9 (CYP2C9) [%],CYP450 (% remaining Activity at 10 μM) CYP2D6 (CYP2D6) [%],CYP450 (% remaining Activity at 10 μM) CYP1A2 (CYP1A2) [%],CYP450 (% remaining Activity at 10 μM) CYP3A4 (CYP3A4) [%],CYP450 (% remaining Activity at 10 μM) CYP2C19 (CYP2C19) [%]
CCOc1ccc(-n2c(SCC(=O)N(C)Cc3ccccc3)nc3sc4c(c3c2=O)CCN(C(C)=O)C4)cc1 [Compound 32],6.53 ± 2.46,88,< 10,30.9,91.7,117.3,49.3,23.3
CCOc1ccc(-n2c(SCC(=O)N(CC)Cc3ccccc3)nc3sc4c(c3c2=O)CCN(C(C)=O)C4)cc1 [Compound 33],2.77 ± 1.18,104,< 10,32.8,82.0,150.5,56.6,35.7
CCOc1ccc(-n2c(SCC(=O)NCc3ccc(Cl)cc3)nc3sc4c(c3c2=O)CCN(C(C)=O)C4)cc1 [Compound 34],4.13 ± 1.39,97,0,32.9,92.6,160.6,15.0,56.8
CCCN(CCC)C(=O)CSc1nc2sc3c(c2c(=O)n1-c1ccc(OCC)cc1)CCN(C(C)=O)C3 [Compound 39],5.87 ± 1.18,99,,61.0,95.1,143.1,51.8,64.0
CCCCN(CCCC)C(=O)CSc1nc2sc3c(c2c(=O)n1-c1ccc(OCC)cc1)CCN(C(C)=O)C3 [Compound 40],2.43 ± 0.48,107,,33.6,79.8,103.0,38.9,57.4
CCOc1ccc(-n2c(SCC(=O)N3CCN(Cc4ccccc4)CC3)nc3sc4c(c3c2=O)CCN(C(C)=O)C4)cc1 [Compound 45],,113,4.3,14.9,107.0,110.5,89.1,23.2
CCOc1ccc(-n2c(SCC(=O)N3CCC(c4ccccc4)CC3)nc3sc4c(c3c2=O)CCN(C(C)=O)C4)cc1 [Compound 46],,86,6.6,6.7,72.3,84.4,81.2,16.5
CCOc1ccc(-n2c(SCC(=O)N3CCC(Cc4ccccc4)CC3)nc3sc4c(c3c2=O)CCN(C(C)=O)C4)cc1 [Compound 47],,94,2.2,15.6,64.0,81.5,66.2,15.0
CCOc1ccc(-n2c(SCC(=O)Nc3ccc(OC)c(OC)c3)nc3sc4c(c3c2=O)CCN(C)C4)cc1 [Compound 48],,106,63.4,33.7,57.8,35.8,20.7,20.3
CCCN(CCC)C(=O)CSc1nc2sc3c(c2c(=O)n1-c1ccc(OCC)cc1)CCN(C)C3 [Compound 56],12.9 ± 3.03,108,,44.5,89.2,71.9,30.9,30.5
